In ChEMBL document CHEMBL1144525, “Prediction of binding for a kind of non-peptic HCV NS3 serine protease inhibitors from plants by molecular docking and MM-PBSA method” (Bioorg Med Chem, 2007):

assay: Inhibition of HCV NS3 serine protease; design: species or system Hepacivirus hominis

Row | IC50 | Compound
1 | 950 µM | O=C(OC[C@H]1O[C@@H](O)[C@H](O)[C@@H](OC(=O)c2cc(O)c(O)c(O)c2)[C@@H]1O)c1cc(O)c(O)c(O)c1
2 | 10.1 µM | O=C(OC[C@H]1O[C@@H](OC(=O)c2cc(O)c(O)c(O)c2)[C@H](O)[C@@H](OC(=O)c2cc(O)c(O)c(O)c2)[C@@H]1O)c1cc(O)c(O)c(O)c1
3 | 1 µM | O=C(O[C@@H]1O[C@H](CO)[C@@H](OC(=O)c2cc(O)c(O)c(O)c2)[C@H](OC(=O)c2cc(O)c(O)c(O)c2)[C@H]1O)c1cc(O)c(O)c(O)c1

Second part, the compound before the results:

Row | Compound | IC50
4 | O=C(Oc1cc(C(=O)O[C@@H]2O[C@H](CO)[C@@H](OC(=O)c3cc(O)c(O)c(O)c3)[C@H](OC(=O)c3cc(O)c(O)c(O)c3)[C@H]2OC(=O)c2cc(O)c(O)c(O)c2)cc(O)c1O)c1cc(O)c(O)c(O)c1 | 0.68 µM
5 | O=C(Oc1c(O)cc(C(=O)O[C@H]2[C@H](OC(=O)c3cc(O)c(O)c(O)c3)O[C@H](CO)[C@@H](OC(=O)c3cc(O)c(O)c(O)c3)[C@@H]2OC(=O)c2cc(O)c(O)c(O)c2)cc1O)c1cc(O)c(O)c(O)c1 | 0.66 µM
